Measurements published in US6093714A, “Tricyclic benzazepine compounds” (priority 1995, dated 2000).
Structures can show the parent of a compound that is named as a salt. Where two headings read alike, the source gives them in different places.

What was measured:
[1] = system: intraperitoneal cells; test: Histamine release reaction inhibition test (rat intraperitoneal cells, DNP-As antigen); type: cell-based, Wistar male rat; conditions: 10^-5 to 10^-10 M test compound, DNP-As stimulated intraperitoneal cells, 10^5 cells/ml, read-out: IC50 (dose of the test compound required for inhibiting the histamine release reaction by 50%)
Description: Histamine release reaction inhibition test
(1) Preparation of antiserum
Rat anti-dinitrophenylated ascaris protein (hereinafter referred to as "DNP-As") serum was prepared according to the method established by Tada et al. (Tada, T. and Okumura, K., J. Immun. 106(4), 1971). Specifically, 1010 organisms of Bordetella pertussis and 1 mg of DNP-As were intramuscularly administered to the foot pad of the limbs of Brown norway male rats weighing 200 g, and, five days after the administration, 0.5 mg of DNP-As was intramuscularly administered to the back. Three days after that, blood was collected to prepare an antiserum. The titer of the antiserum was determined by using a 48-hr passive cutaneous anaphylaxis reaction using a rat and found to be 1:1000 to 1:2000.
(2) Induction of histamine release reaction and release reaction inhibitory activity
The above serum was diluted four times with physiological brine, and 1 ml of the diluted serum was intraperitoneally administered to a Wistar male rat. Two days after the administration, the abdominal cavity was washed with phosphate buffer, and intraperitoneal cells were collected. The cells were adjusted to 10^5 cells/ml and stimulated with 1 pg/ml DNP-As, and the amount of the histamine released on the supernatant was measured by the method established by Shore et al (Shore, P. A., Burkhalter, A. H. and Chon Jr. V. H. J. Pharm. Exp. Ther., 127 , 182-186 (1959)).
The amount of the released histamine treated with 10^-5 to 10^-10 M test compound was compared with that of non-treated group. The dose of the test compound required for inhibiting the histamine release reaction by 50% (IC50) was calculated based on the percentage inhibition. IC50 of sodium cromoglicate was used as a control.

[2] = system: allergic foot-pad edema reaction; test: Immediate and late phase allergic response inhibition test (allergic foot-pad edema reaction); type: in vivo, Wister male rats; conditions: Rattus norvegicus, po, 20 mg/kg orally, 10 min before induction
Description: Immediate and late phase allergic response inhibition test
Wister male rats weighing of 200 g were provided. 1010 organisms of Bordetella pertussis and 1 mg of dinitrophenylated ovalbumin (hereinafter abbreviated to "DNP-OA") were intramuscularly administered into the foot pad of the limbs of the rats except for the right hind leg. Further, ten days after the administration, 5 pg/site DNP-OA was subcutaneously administered to the right hind leg to induce allergic foot-pad edema reaction. The inhibitory activity of the test compounds was determined in such a manner that the volume of edema 30 min after the induction of the allergic reaction was regarded as an immediate phase allergic response and the volume of edema 8 hr after the induction of the allergic reaction was regarded as a late phase allergic response. Each test compound was dissolved or suspended in a 0.25% Tween 80 solution, and the solution or suspension was orally administered at a dose of 20 mg/kg 10 min before the induction of the allergic reaction.
Only the 0.25% Tween 80 solution was administered to the control group of rats not treated with any test compound, and 100 mg/kg sodium cromoglicate was subcutaneously or orally administered to the positive control group of rats.
The percentage inhibition of the allergic foot-pad edema reaction was determined by the following equation.
Percentage inhibition of allergic foot-pad edema reaction=(A-B)/A×100
wherein A: average edema volume for the non-treated control group of rats; and
B: average edema volume for the group of rats with the test compound administered.

[3] = 0.5 h, edema 30 min after induction, read-out: Inhibition (%) Immediate phase response
[4] = edema 8 hr after induction, read-out: Inhibition (%) Late phase response

| SMILES | IC50 [1] | inhibition in vivo at 20 mg/kg [2, 3] | inhibition in vivo at 20 mg/kg [2, 4] |
| --- | --- | --- | --- |
| O=C(/C=C/c1ccc2c(=O)c3[nH]nnc3c(=O)[nH]c2c1)Nc1ccccc1C(=O)O [Example 1, 7-(2-(N-(2-Carboxyphenyl)carbamoyl)-(E)-ethenyl)-4(5H),10-dioxo-1H-1,2,3-triazolo[4,5-c][1]benzazepine] | 6 nM |  |  |
| O=C(CCc1ccc2c(=O)c3[nH]nnc3c(=O)[nH]c2c1)NCc1ccccn1 [Example 2, 4(5H),10-dioxo-7-(2-(N-(2-pyridyl)methyl)carbamoyl)ethyl-1H-1,2,3-triazolo[4,5-c][1]benzazepine] | 4.4 nM | 57% | 43% |
| CN(Cc1ccccn1)C(=O)CCc1ccc2c(=O)c3[nH]nnc3c(=O)[nH]c2c1 [Example 3, 4(5H),10-dioxo-7-(2-(N-methyl-N-(2-pyridyl)methyl)carbamoyl)ethyl-1H-1,2,3-triazolo[4,5-c][1]benzazepine] | 4.6 nM | 44% | 14% |
| CCN(Cc1ccccn1)C(=O)CCc1ccc2c(=O)c3[nH]nnc3c(=O)[nH]c2c1 [Example 4, 7-(2-(N-Ethyl-N-(2-pyridyl)methyl)carbamoyl)ethyl-4(5H),10-dioxo-1H-1,2,3-triazolo[4,5-c][1]benzazepine] | 13 nM | 48% | 21% |
| O=C(CCc1ccc2c(=O)c3[nH]nnc3c(=O)[nH]c2c1)N(Cc1ccccn1)Cc1ccccn1 [Example 5, 4(5H ),10-Dioxo-7-(2-(N,N-bis(2-pyridylmethyl))carbamoyl)ethyl-1H-1,2,3-triazolo[4,5-c][1]benzazepine] | 2.9 nM | 40% | 43% |
| O=C(CCc1ccc2c(=O)c3[nH]nnc3c(=O)[nH]c2c1)N1CCc2ccccc2C1 [Example 6, 7-(2-(1,2,3,4-Tetrahydro-2-isoquinolyl)carbonylethyl)-4(5H),10-dioxo-1H-1,2,3-triazolo[4,5-c][1]benzazepine] | 4.5 nM | 19% | 29% |
| COC(=O)c1cc2c(s1)CCN(C(=O)CCc1ccc3c(=O)c4[nH]nnc4c(=O)[nH]c3c1)C2 [Example 7, 7-(2-(2-Methoxycarbonyl-4,5,6,7-tetrahydrothieno[3,2-c]pyridin-5-yl)carbonylethyl)-4(5H),10-dioxo-1H-1,2,3-triazolo[4,5-c][1]benzazepine] | 12 nM | 20% | -3% |
| CN1CCN(C(=O)CCc2ccc3c(=O)c4[nH]nnc4c(=O)[nH]c3c2)CC1 [Example 8, 7-(2-(4-Methylpiperazin-1-yl)carbonylethyl)-4(5H),10-dioxo-1H-1,2,3-triazolo[4,5-c][1]benzazepine] | 9.5 nM | 42% | 20% |
| O=C(CCc1ccc2c(=O)c3[nH]nnc3c(=O)[nH]c2c1)Nc1ccncc1 [Example 9, 7-(2-(N-(4-Pyridylamino))carbamoyl)ethyl-4(5H),10-dioxo-1H-1,2,3-triazolo[4,5-c][1]benzazepine] | 3.9 nM | 30% | 33% |
| O=c1[nH]c2cc(/C=C/c3ccncc3)ccc2c(=O)c2[nH]nnc12 [Example 10, 4(5H),10-Dioxo-7-(2-(4-pyridyl)-(E)-ethenyl)-1H-1,2,3-triazolo[4,5-c][1]benzazepine trifluoroacetate] | 2.4 nM | 44% | 59% |
| O=c1[nH]c2cc(/C=C/c3ccccn3)ccc2c(=O)c2[nH]nnc12 [Example 11, 4(5H),10-Dioxo-7-(2-(2-pyridyl)-(E)-ethenyl)-1H-1,2,3-triazolo[4,5-c][1]benzazepine trifluoroacetate] | 1.8 nM |  |  |
| O=c1[nH]c2cc(OCCCN3CCOCC3)ccc2c(=O)c2[nH]nnc12 [Example 12, 7-(3-Morpholinopropoxy)-4(5H),10-dioxo-1H-1,2,3-triazolo[4,5-c][1]benzazepine trifluoroacetate] | 3.6 nM | 46% | 42% |
| CN1CCN(CCCOc2ccc3c(=O)c4[nH]nnc4c(=O)[nH]c3c2)CC1 [Example 13, 7-(3-(4-Methyl-1-piperazino)propoxy)-4(5H),10-dioxo-1H-1,2,3-triazolo[4,5-c][1]benzazepine ditrifluoroacetate] | 11 nM | 28% | 28% |
| O=c1[nH]c2cc(OCCCN3CCC(Cc4ccccc4)CC3)ccc2c(=O)c2[nH]nnc12 [Example 14, 7-(3-(4-Benzylpiperidino)propoxy)-4(5H),10-dioxo-1H-1,2,3-triazolo[4,5-c][1]benzazepine trifluoroacetate] | 11 nM | 32% | 15% |
| CCN(Cc1ccccn1)C(=O)COc1ccc2c(=O)c3[nH]nnc3c(=O)[nH]c2c1 [Example 15, 7-(N-Ethyl-N-(2-pyridylmethyl)carbamoylmethyloxy)-4(5H),10-dioxo-1H-1,2,3-triazolo[4,5-c][1]benzazepine trifluoroacetate] | 9.9 nM | 34% | 25% |
| O=C(COc1ccc2c(=O)c3[nH]nnc3c(=O)[nH]c2c1)NCc1ccccn1 [Example 16, 4(5H ),10-Dioxo-7-(N-(2-pyridylmethyl)carbamoylmethyloxy)-1H-1,2,3-triazolo[4,5-c][1]benzazepine trifluoroacetate] | 2.8 nM | 48% | 35% |
| Cc1ccc(C(=O)Oc2ccc3c(=O)c4[nH]nnc4c(=O)[nH]c3c2)cc1 [Example 17, 4(5H),10-Dioxo-7-(4-toluoyloxy)-1H-1,2,3-triazolo[4,5-c][1]benzazepine] | 4.1 nM | 44% | 24% |
| O=C(COc1ccc2c(=O)c3[nH]nnc3c(=O)[nH]c2c1)N(Cc1ccccn1)Cc1ccccn1 [Example 18, 7-(N,N-Bis(2-pyridylmethyl)carbamoylmethyloxy)-4(5H),10-dioxo-1H-1,2,3-triazolo[4,5-c][1]benzazepine ditrifluoroacetate] | 6.2 nM | 40% | 5% |
| CC(=O)Nc1ccc2c(=O)c3[nH]nnc3c(=O)[nH]c2c1 [Example 21, 7-Acetylamino-4(5H),10-dioxo-1H-1,2,3-triazolo[4,5-c][1]benzazepine] | 4.6 nM | 43% | 26% |
| O=C(Nc1ccc2c(=O)c3[nH]nnc3c(=O)[nH]c2c1)c1ccc(OCCCCc2ccccc2)cc1 [Example 22, 4(5H),10-Dioxo-7-(4-phenylbutoxybenzoylamino)-1H-1,2,3-triazolo[4,5-c][1]benzazepine] | 8.1 nM | 40% | 41% |
| COc1ccc(C(=O)COc2cc3c(=O)c4[nH]nnc4c(=O)[nH]c3cc2C)cc1 [Example 27, 8-(4-Methoxyphenacyloxy)-7-methyl-4(5H),10-dioxo-1H-1,2,3-triazolo[4,5-c][1]benzazepine] | 10 nM |  |  |
| Cc1cc(C)c2[nH]c(=O)c3nn[nH]c3c(=O)c2c1 [Example 29, 6,8-Dimethyl-4(5H),10-dioxo-1H-1,2,3-triazolo[4,5-c][1]benzazepine] | 31 nM |  |  |
| O=c1[nH]c2cc(C=Cc3cccnc3)ccc2c(=O)c2[nH]nnc12 [Example 31, 4(5H),10-Dioxo-7-(2-(3-pyridyl)ethenyl)-1H-1,2,3-triazolo[4,5-c][1]benzazepine trifluoroacetate (E:Z=1:2)] | 2 nM |  |  |
| O=c1[nH]c2cc(/C=C/c3ccc4ccccc4n3)ccc2c(=O)c2[nH]nnc12 [Example 33, 4(5H),10-Dioxo-7-(2-(2-quinolyl)-(E)-ethenyl)-1H-1,2,3-triazolo[4,5-c][1]benzazepine trifluoroacetate] | 0.4 nM |  |  |
